Data published in article PMC9491098, “Discovery of novel drug-like antitubercular hits targeting the MEP pathway enzyme DXPS by strategic application of ligand-based virtual screening” (Chemical Science, 2022).
Like-named read-outs stand apart in the source and are kept apart here.

Target: MtDXPS (Mycobacterium tuberculosis, UniProt P9WNS3)
Assay: biochemical
[1] = Table S1, first round of LBVS, MtDXPS, read-out: IC50
[2] = Table S2, second round of LBVS, MtDXPS, read-out: IC50
[3] = Table S3, third round of LBVS, MtDXPS, read-out: IC50

Sequence of MtDXPS (P9WNS3 whole entry, looked up): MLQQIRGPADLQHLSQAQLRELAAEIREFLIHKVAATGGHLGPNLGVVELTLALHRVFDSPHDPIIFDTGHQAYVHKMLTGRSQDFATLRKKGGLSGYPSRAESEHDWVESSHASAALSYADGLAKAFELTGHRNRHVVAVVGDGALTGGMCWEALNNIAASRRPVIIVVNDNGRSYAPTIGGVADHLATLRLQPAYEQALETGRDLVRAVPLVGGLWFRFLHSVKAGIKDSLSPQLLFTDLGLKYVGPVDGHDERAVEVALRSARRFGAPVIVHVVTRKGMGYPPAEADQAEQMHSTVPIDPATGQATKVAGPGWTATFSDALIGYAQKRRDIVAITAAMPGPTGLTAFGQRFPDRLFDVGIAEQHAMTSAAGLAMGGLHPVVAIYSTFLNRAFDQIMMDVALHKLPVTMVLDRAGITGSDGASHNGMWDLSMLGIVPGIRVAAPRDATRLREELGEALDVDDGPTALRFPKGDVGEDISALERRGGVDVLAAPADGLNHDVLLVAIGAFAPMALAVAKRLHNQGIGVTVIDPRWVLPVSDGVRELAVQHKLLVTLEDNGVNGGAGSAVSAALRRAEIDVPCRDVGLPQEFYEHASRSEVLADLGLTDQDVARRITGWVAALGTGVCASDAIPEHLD

| SMILES | IC50 [1] [µM] | IC50 [2] [µM] | further results |
| --- | --- | --- | --- |
| CCn1nccc1CN(C)C(=O)C1CCC1 [Compound 67] | > 1000 | – | – |
| CN1C(=O)CCC(C(=O)O)C1c1ccccc1 (stereo not shown) [Compound 68] | > 1000 | – | – |
| CCCCNC(=O)N(C)Cc1c(C)nn(CC)c1C [Compound 69] | > 1000 | – | – |
| COc1ccc(Cn2ccnc2)cc1N [Compound 70] | > 1000 | – | – |
| CCC1CCC2(CC1)N=C(O)N(CC(=O)c1ccc3c(c1)CCC3)C2=O (stereo not shown) [Compound 71] | > 60 | – | – |
| Cc1cc(C)n(CCc2nnc(S)n2-c2ccc(Br)cc2)n1 [Compound 72] | > 120 | – | – |
| Cc1ccc(-n2c(S)nnc2CCn2nc(C)cc2C)cc1 [Compound 73] | > 500 | – | – |
| Cc1cc(C)n(CCc2nnco2)n1 [Compound 74] | > 1000 | – | – |
| NC(Cc1ccc(O)cc1)c1nc2ccccc2[nH]1 (stereo not shown) [Compound 75] | – | – | IC50: > 1000 µM |
| O=C(O)c1cc(O)ccc1C=C(Cl)Cl [Compound 79] | > 1000 | – | – |
| CCCCC(C(=O)O)C(C)CC(=O)Nc1nncs1 (stereo not shown) [Compound 80] | > 1000 | – | – |
| O=C(Nc1ccc(O)cc1C(=O)O)c1ccco1 [Compound 81] | > 60 | – | – |
| O=Cc1ccc(O[C@@H]2O[C@H](CO)[C@@H](O)[C@H](O)[C@H]2O)cc1 [Compound 82] | – | – | IC50: > 1000 µM |
| Cc1c(/N=C2\C(=O)N(CC(=O)O)c3ccccc32)c(=O)n(-c2ccccc2)n1C [Compound 84] | > 120 | – | – |
| CN1NC(c2ccc(O)cc2)C2C(=O)NC(=O)C21 (stereo not shown) [Compound 85] | > 120 | – | – |
| Cc1ccc(C(=O)Nc2ccc(O)cc2C(=O)O)cc1 [Compound 86] | > 120 | – | – |
| CCc1cc(C(N)=O)c(NC(=O)c2cccnc2)s1 [Compound 87] | > 60 | – | – |
| COc1cc(/C=C2\C(=O)Nc3ccc(Br)cc32)cc(OC)c1O [Compound 88] | > 120 | – | – |
| CCCSc1nnc(-c2ccccc2NC(C)=O)c(O)n1 [Compound 89] | > 120 | – | – |
| CCCCC(NS(=O)(=O)c1cc2c3c(c1)c(C)cc(=O)n3CC2)C(=O)O (stereo not shown) [Compound 90] | > 60 | – | – |
| OCCc1nc2ccccc2n1Cc1cccc(Cl)c1 [Compound 100] | – | > 236 | – |
| OCCc1nc2ccccc2n1Cc1ccc(Cl)cc1 [Compound 101] | – | > 440 | – |
| OCCc1nc2ccccc2n1Cc1ccc(F)cc1 [Compound 102] | – | > 540 | – |
| CC(C)(C)c1ccc(Cn2c(CCCO)nc3ccccc32)cc1 [Compound 103] | – | > 90 | – |
| CC(C)Cc1nc2ccccc2n1Cc1ccc(Cl)cc1 [Compound 104] | – | > 63 | – |

| SMILES | IC50 [1] [µM] | IC50 [2] [µM] | further results |
| --- | --- | --- | --- |
| COc1ccc(Cc2nc3ccccc3n2CC(O)CO)cc1 (stereo not shown) [Compound 105] | – | > 2000 | – |
| CNc1ncc2c(n1)CN(CCc1ccccc1F)C2=O [Compound 106] | – | > 340 | – |
| Nc1ncc2c(n1)CN(Cc1ccccc1C(F)(F)F)C2=O [Compound 107] | – | > 380 | – |
| Nc1ncc2c(n1)CN(Cc1ccc3c(c1)OCO3)C2=O [Compound 108] | – | > 260 | – |
| Cc1ccc(/C(=N\O)c2ccc(O)cc2O)cc1 [Compound 110] | – | > 1000 | – |
| COc1ccc(OC/C(=N\O)c2ccc(O)cc2O)cc1 [Compound 111] | – | > 300 | – |
| O=C1/C(=N\O)c2ccc(Cl)cc2N1Cc1ccccc1 [Compound 112] | – | > 900 | – |
| O=C1/C(=N\O)c2c(Cl)cccc2N1Cc1ccccc1 [Compound 113] | – | > 30 | – |
| Cc1ccc(C)c2c1/C(=N/O)C(=O)N2Cc1ccccc1 [Compound 114] | – | > 60 | – |
| ON=C(c1ccccc1)c1ccccc1 [Compound 115] | – | > 500 | – |
| Nc1ccncc1/C(=N/O)c1ccccc1 [Compound 116] | – | > 2000 | – |
| O/N=C(/c1ccccc1)c1ccccn1 [Compound 117] | – | > 500 | – |
| Cc1sc(-n2c(C)cc(/C=N/O)c2C)c(C(=O)O)c1C [Compound 118] | – | > 800 | – |
| CC(C)(C)C(O)/C(=N/O)n1cncn1 (stereo not shown) [Compound 120] | – | > 200 | – |
| O/N=C/c1cccn1-c1ccc(Br)cc1 [Compound 121] | – | > 200 | – |
| CCCOc1ccc(C2N=C(N)Nc3nc4ccccc4n32)cc1 (stereo not shown) [Compound 122] | – | > 50 | – |
| NC1=NC(c2ccccc2F)n2c(nc3ccccc32)N1 (stereo not shown) [Compound 123] | – | > 120 | – |
| CCc1ccc(C2N=C(N)Nc3nc4ccccc4n32)cc1 (stereo not shown) [Compound 124] | – | > 30 | – |
| CN(C)c1ccc(C2NC(N)=Nc3nc4ccccc4n32)cc1 (stereo not shown) [Compound 125] | – | > 200 | – |
| NC1=NC(c2ccc(O)c(O)c2)n2c(nc3ccccc32)N1 (stereo not shown) [Compound 126] | – | > 160 | – |
| FC(F)(F)c1ccc(Nc2nc(-c3ccncc3)cs2)cc1 [Compound 132] | – | – | IC50 [3]: > 60 µM |
| Cc1nc(NC(=O)c2ccccc2)sc1-c1csc(Nc2ccc(C(F)(F)F)cc2)n1 [Compound 133] | – | – | IC50 [3]: > 120 µM |
| Cc1ccc(-c2csc(Nc3cccc(Cl)c3C)n2)cc1 [Compound 134] | – | – | IC50 [3]: > 16 µM |
| Cc1c(Cl)cccc1Nc1nc(-c2cccnc2)cs1 [Compound 135] | – | – | IC50 [3]: > 200 µM |
